Source: US20230159620A1, “COMPOSITIONS AND METHODS OF TREATMENT FOR VASCULAR DISEASES AND THROMBOSIS” (Washington University, priority 2021, published 2023)

What was measured:
[1] = Arterial blood pressure response to vasoactive agents; format: in vivo, mouse; conditions: venous administration, anesthetized Svep1+/+ and Svep1−/− mice
Description: Central arterial blood pressure and heart rate were measured under inhaled 1.5% isoflurane anesthesia and while mice were maintained at 37° C. using a heating pad and rectal thermometer, as done previously. Briefly, a midline incision was performed in the neck region; the thymus, muscle, and connective tissue were dissected away to isolate the right common carotid artery. After tying it distally and clamping it proximally, an incision was made in the right common carotid artery through which a Millar pressure transducer (model SPR-1000, Houston, Tex.) was introduced, the clamp was removed, and the transducer advanced to the ascending aorta. Once instrumentation was complete, arterial blood pressure (systolic, diastolic, and mean) and heart rate were recorded via the PowerLab® data acquisition system (ADlnstruments, Colorado Springs, Colo.). The average of a 3-minute period of stable recording was reported. Data were analyzed using LabChart® 8 for 673 MAC software (ADInstruments).
To assess the blood pressure response to vasoactive agents, after baseline blood pressure measurement, dissection was performed to visualize the left internal jugular (IJ) vein as done previously. Once identified, a small incision was made and PE-10 tubing was introduced and kept in place with a 6-0 silk suture. […]

mTOR = mTOR signaling immunoblot, platelets; format: cell-based, human; conditions: platelets pretreated with inhibitor before SVEP1
Description: Prior to performing signaling assays, cells were trypsinized, centrifuged, suspended in basal media, and counted using an automated hemocytometer. Cells were further diluted in basal media to an assay-dependent concentration. Cells were then incubated with gentle agitation for 60 minutes to prevent cell attachment and reduce basal signaling. […] An equal volume of DMSO was used as the negative control condition. […] 1 μg Pearl 1 polyclonal antibody was added as a specific positive control. 20% growth media or 2% fetal bovine serum, labeled “Serum” in figures, was added as a non-specific positive control. The cells were centrifuged at 300G for 3 minutes with the exception of platelets, which were centrifuged at 500G for 5 minutes. The cells were then incubated at 37° C. for 8-45 minutes, depending on the cell type and pathway of interest. The cells were lysed in radioimmunoprecipitation buffer (RIPA) containing a cocktail of protease and phosphatase inhibitors and universal nuclease. Immunoblots were performed by standard techniques, as briefly follows. […] Cell lysates were then reduced with dithiothreitol (DTT) in lithium dodecyl sulfate (LDS) sample buffer (#NP0007, Invitrogen). […] Membranes were blocked in 5% BSA/Tris-buffered saline (TBS) with 0.1% Tween 20 for 30 minutes. The indicated primary antibodies were incubated with the pre-blocked membranes overnight at 4° C. Membranes were washed with TBS with 0.1% Tween 20, probed with fluorescent secondary antibodies, and imaged. β-actin or β-tubulin served as a loading control.
Whole blood was collected by venipuncture into either heparin vacutainers (BD, Franklin Lakes) for whole blood experiments or acid-citrate-dextrose (ACD) vacutainers (BD, Franklin Lakes) for platelet isolation studies. For platelet isolation, samples were supplemented with apyrase (Sigma, St Louis) and prostaglandin E1 (Cayman Chemical, Ann Arbor), and platelet-rich plasma (PRP) was prepared by centrifugation of the ACD whole blood for 20 minutes at 200G. […]

AKT [2] = test: AKT signaling immunoblot, platelets; format: cell-based, human; conditions: platelets pretreated with inhibitor before SVEP1
Description: Prior to performing signaling assays, cells were trypsinized, centrifuged, suspended in basal media, and counted using an automated hemocytometer. Cells were further diluted in basal media to an assay-dependent concentration. Cells were then incubated with gentle agitation for 60 minutes to prevent cell attachment and reduce basal signaling. PP1, Dynasore, MK-2206, and Rapamycin were diluted in DMSO and used in assay concentrations of 10 μM, 100 μM, 10 μM, and respectively, for the final 20-30 minutes of incubation in basal media. An equal volume of DMSO was used as the negative control condition. […] 1 μg Pearl 1 polyclonal antibody was added as a specific positive control. 20% growth media or 2% fetal bovine serum, labeled “Serum” in figures, was added as a non-specific positive control. The cells were centrifuged at 300G for 3 minutes with the exception of platelets, which were centrifuged at 500G for 5 minutes. The cells were then incubated at 37° C. for 8-45 minutes, depending on the cell type and pathway of interest. The cells were lysed in radioimmunoprecipitation buffer (RIPA) containing a cocktail of protease and phosphatase inhibitors and universal nuclease. Immunoblots were performed by standard techniques, as briefly follows. Protein content was determined using a bicinchoninic acid assay with BSA standards (#23225, Pierce BCA Protein Assay Kit). Cell lysates were then reduced with dithiothreitol (DTT) in lithium dodecyl sulfate (LDS) sample buffer (#NP0007, Invitrogen). Equal protein amounts were added to polyacrylamide gels (#4561086, BioRad) and electrophoresed prior to transferring to a nitrocellulose or polyvinylidene fluoride membrane (#1620260, BioRad). Membranes were blocked in 5% BSA/Tris-buffered saline (TBS) with 0.1% Tween 20 for 30 minutes. The indicated primary antibodies were incubated with the pre-blocked membranes overnight at 4° C. Membranes were washed with TBS with 0.1% Tween 20, probed with fluorescent secondary antibodies, and imaged. β-actin or β-tubulin served as a loading control.
Whole blood was collected by venipuncture into either heparin vacutainers (BD, Franklin Lakes) for whole blood experiments or acid-citrate-dextrose (ACD) vacutainers (BD, Franklin Lakes) for platelet isolation studies. For platelet isolation, samples were supplemented with apyrase (Sigma, St Louis) and prostaglandin E1 (Cayman Chemical, Ann Arbor), and platelet-rich plasma (PRP) was prepared by centrifugation of the ACD whole blood for 20 minutes at 200G. Platelets were isolated from the PRP by centrifugation for 10 minutes at 1000G and resuspended in modified Tyrode's buffer twice at desired platelet counts and kept at 37° C. until used. Isolated platelets were used within 2 hours of preparation.

AKT [3] = test: AKT signaling immunoblot / phospho-array, HUVECs; format: cell-based, human; conditions: PP1 10 μM, Dynasore 100 μM, vs DMSO
Description: Cellular reagents were purchased from various commercial vendors. Primary human umbilical vein endothelial cells (HUVECs) were obtained from Cell Applications Inc. and cultured according to the manufacture's recommendations. Primary human coronary artery smooth muscle cells were obtained from Invitrogen and were cultured according to the manufacture's recommendations. 293T cells were obtained from ATCC and were cultured according to the manufacture's recommendations. Mouse primary smooth muscle cells were obtained and cultured as described previously. Predesigned Silencer Select siRNA constructs targeting Pearl 1 and negative control siRNA were obtained from ThermoFisher. Transfections were performed using RNAiMAX or Lipofectamine 3000 transfection reagents according to the manufacturer's protocols. Cells were used for signaling assays 48 hours after transfection; efficient Pearl 1 knockdown or Pearl 1 overexpression was confirmed by immunoblot assays.
Prior to performing signaling assays, cells were trypsinized, centrifuged, suspended in basal media, and counted using an automated hemocytometer. Cells were further diluted in basal media to an assay-dependent concentration. Cells were then incubated with gentle agitation for 60 minutes to prevent cell attachment and reduce basal signaling. PP1, Dynasore, MK-2206, and Rapamycin were diluted in DMSO and used in assay concentrations of 10 μM, 100 μM, 10 μM, and respectively, for the final 20-30 minutes of incubation in basal media. An equal volume of DMSO was used as the negative control condition. […] 1 μg Pearl 1 polyclonal antibody was added as a specific positive control. 20% growth media or 2% fetal bovine serum, labeled “Serum” in figures, was added as a non-specific positive control. The cells were centrifuged at 300G for 3 minutes with the exception of platelets, which were centrifuged at 500G for 5 minutes. The cells were then incubated at 37° C. for 8-45 minutes, depending on the cell type and pathway of interest. The cells were lysed in radioimmunoprecipitation buffer (RIPA) containing a cocktail of protease and phosphatase inhibitors and universal nuclease. Immunoblots were performed by standard techniques, as briefly follows. Protein content was determined using a bicinchoninic acid assay with BSA standards (#23225, Pierce BCA Protein Assay Kit). Cell lysates were then reduced with dithiothreitol (DTT) in lithium dodecyl sulfate (LDS) sample buffer (#NP0007, Invitrogen). Equal protein amounts were added to polyacrylamide gels (#4561086, BioRad) and electrophoresed prior to transferring to a nitrocellulose or polyvinylidene fluoride membrane (#1620260, BioRad). Membranes were blocked in 5% BSA/Tris-buffered saline (TBS) with 0.1% Tween 20 for 30 minutes. […]

VSMCs = test: VSMC proliferation assay (BrdU incorporation); format: cell-based, mouse
Description: Plates were UV sterilized before adding cells. […] For analysis of peritoneal macrophages, 4% thioglycolate-elicited peritoneal macrophages from Itg α9^MAC+/+ and Itg α9^MACfl/fl mice were suspended in BrdU dissolved in RPMI 1640 media containing 10% FBS. 2.5×10^4 cells were added to each well since peritoneal macrophages are smaller and have lower proliferation rates than VSMCs in culture.
Plates were ultraviolet (UV) sterilized before adding cells. […] Efficient Itgα9 knockdown was confirmed by qPCR.

Row | Compound | change in blood pressure [1] | dependence of SVEP1-induced p70S6K Thr 389 phosphorylation on the inhibited protein or process (mTOR) | effect of inhibitor on activation of AKT by SVEP1 (AKT [2]) | effect of inhibitor pretreatment on AKT activation by SVEP1 and Pearl 1 pAb (AKT [3]) | also measured
1 | CNC[C@H](O)c1cccc(O)c1 [phenylephrine] | dose-dependent manner | – | – | – | –
2 | Cc1ccc(-c2nn(C(C)(C)C)c3ncnc(N)c23)cc1 [PP1] | – | dependent | completely abrogated | abrogated | –
3 | C[C@H](NC(=O)Cc1cc(F)cc(F)c1)C(=O)N[C@H](C(=O)OC(C)(C)C)c1ccccc1 [DAPT, reference compound] | – | – | – | – | effect on cell proliferation in response to 10% fetal bovine serum (VSMCs; 25 μM DAPT): not significantly inhibited; effect on SVEP1-induced proliferation (VSMCs; 25 μM DAPT vs DMSO): completely abrogated
4 | NC1(c2ccc(-c3nc4ccn5c(=O)[nH]nc5c4cc3-c3ccccc3)cc2)CCC1 [MK-2206] | – | partially dependent | completely abrogated | – | –
5 | angiotensin II | dose-dependent manner | – | – | – | –
6 | O=C(N/N=C/c1ccc(O)c(O)c1)c1cc2ccccc2cc1O [Dynasore] | – | partially dependent | partially abrogated | abrogated | –
